Assay results taken from patent publication US6518271B1, “1H-imidazo[4,5-d]pyridazin-7-one, and corresponding thiones as corticotropin releasing factor (CRF) receptor ligands” (Bristol-Myers Squibb Company, priority 1998, dated 2003).

- melting point: 246 to 247 °C
SMILES: CCC(C)C(CC)C1=NC2=C(c3ccc(Cl)cc3Cl)N=NC(=O)C2=N1 (stereo not shown) [Example 1, 4-(2,4-dichlorophenyl)-2-ethyl-1-(1-ethyl)propyl-imidazo[4,5-d]pyridazin-7-one]
